Our source for the logP values is the SangsterLogP compilation.

Usually logP stands for the decadic logarithm of the partition coefficient of the neutral form, usually between octanol and water.

As for `O=c1[nH]cnc2ccccc12`, the logP was 0.77.

The source holds these as a separate data set.
`c1ccc(-c2ccncc2)cc1` displayed a logP of 2.58. Consider `O=C1NC(=O)C(c2ccccc2)C(=O)N1`, for which the logP was -0.17. `c1ccc(C2CCCN2)cc1` (stereo unspecified) registered a logP of 1.89. On the same count and under the same terms, the result for `O=c1[nH]nc(-c2ccccc2)c2ccccc12` reads 2.48; that for `c1ccc(-c2c[nH]nn2)cc1`, 1.91; that for `O=C1CCc2ccccc2N1`, 1.34. As for `c1ccc(C2CCNCC2)cc1`, the logP is 2.39. For `c1ccc(-c2nc[nH]n2)cc1`, the logP turned out to be 1.54. As to `O=C1C=CC(=O)C(c2ccccc2)=C1`, the logP came out at 1.95. `c1ccc(-c2ncc3ccccc3n2)cc1` yielded a logP of 3.42.

With `O=c1[nH]c2ccccc2cc1-c1ccccc1`, the logP came to 2.99. `c1ccc(-c2nccs2)cc1` displayed a logP of 2.77. Turning to `O=C1NC(=O)c2cc(-c3ccccc3)ccc21`, the logP amounted to 2.97.

`O=C1CC(c2ccccc2)c2ccccc2N1` (stereo unspecified): the logP amounted to 2.79. For `O=C1Nc2ccccc2C1c1ccccc1` (stereo unspecified), the logP was determined as 2.59. Take `c1ccc(-c2nc3ccccc3o2)cc1`: the logP came to 3.67. Take `O=C1Nc2ccccc2CC1c1ccccc1` (stereo unspecified): the logP came to 2.93.

On to `c1ccc(-c2nc3ccccc3[nH]2)cc1`, for which the logP is 3.3.

On to `O=C1CCC(c2ccccc2)CC1`, for which the logP turned out to be 2.3.

In the case of `c1ccc(-c2cnc3ccccc3n2)cc1`, the logP was found to be 3.48.
